Data published in publication PMC10745054, “A Synthetic Model of the Mucosa for Oral Penetration Studies” (Membranes, 2023).

How the values were obtained:
[1] = In vitro permeation through porcine skin, Franz diffusion cell; assay type: in vitro ADME; settings: after 4 h
Description: Three types of membranes were used in this study, a synthetic membrane and two biological membranes, porcine skin and porcine sublingual oral mucosa. […] The biological membranes were a porcine sublingual mucosa and porcine skin. The porcine tongues with sublingual mucosa were supplied by the Faculty of Pharmacy of the University of Barcelona from the Hospital de Bellvitge campus according to the protocols of the ethics committee and with the supervision of the above institution. The mucous membrane was dermatomed to a thickness of 500–700 µm (Dermatome GA630, Aesculap, Tuttlingen, Germany), and portions of the sublingual oral mucosa were obtained to fit in the Franz diffusion cells. In addition, to determine the specific thickness, each mucosal portion was measured with a digital micrometer (MAHR, Göttingen, Germany). […]
(§1) Next, a pseudoinfinite dose (300 µL) of the drug or biocidal solution was applied to each Franz cell. […] The permeation of three biocides, Fungitrol (FUN), propiconazole (PRO), and permethrin (PER), was also determined. […]
The release of each compound was evaluated by determining the cumulative amount permeated (Qn, μg/cm^2), which corresponds to the cumulative amount of the substance quantified in the receiving liquid per unit of surface area of the applied sample [31]. […]

[2] = In vitro permeation through porcine sublingual mucosa (intact or modified by formulation), Franz diffusion cell; assay type: in vitro ADME
Description: (§2) Three types of membranes were used in this study, a synthetic membrane and two biological membranes, porcine skin and porcine sublingual oral mucosa. […] The biological membranes were a porcine sublingual mucosa and porcine skin. The porcine tongues with sublingual mucosa were supplied by the Faculty of Pharmacy of the University of Barcelona from the Hospital de Bellvitge campus according to the protocols of the ethics committee and with the supervision of the above institution. The mucous membrane was dermatomed to a thickness of 500–700 µm (Dermatome GA630, Aesculap, Tuttlingen, Germany), and portions of the sublingual oral mucosa were obtained to fit in the Franz diffusion cells. In addition, to determine the specific thickness, each mucosal portion was measured with a digital micrometer (MAHR, Göttingen, Germany). Porcine skin was obtained from the unboiled back of a Landrace large white pig (3 months old, weight around 40 kg) (supplied by the Department of Cardiology of the Clinic Hospital of Barcelona). Animal handling was approved by the Institutional Review Board and Ethics Committee of Institut d’Investigacions Biomèdiques August Pi i Sunyer (IDIBAPS), and the management of the animals conformed to the Guide for the Care and Use of Laboratory Animals. Porcine skin was dermatomed to a thickness of 500 ± 50 µm (Dermatome GA630, Aesculap, Germany) and stored at −20 °C until further use.
The Nuclepore synthetic membrane, sublingual mucosa, and porcine skin dermatomed to a thickness of 500–700 µm were used to evaluate the permeation of drug/biocidal compounds. These studies were performed using a Franz vertical diffusion cell (Lara Spiral, Couternon, France) as described before. The receiving fluid (RF) used was PBS:EtOH (1:1) for drug permeation and EtOH:H2O (75:25) for biocide permeation, assuring sink conditions of the compounds.
Next, a pseudoinfinite dose (300 µL) of the drug or biocidal solution was applied to each Franz cell. Solutions were applied in triplicate to determine the kinetic parameters. […] The permeation of three biocides, Fungitrol (FUN), propiconazole (PRO), and permethrin (PER), was also determined. The biocides were dissolved in ethanol, each at a concentration of 1%.
Samples (0.2 mL) were collected at different times (0 h, 0.5 h, 1 h, 2 h, and 4 h), and the same volume of receptor fluid was immediately added back for replacement.
(§3) The release of each compound was evaluated by determining the cumulative amount permeated (Qn, μg/cm^2), which corresponds to the cumulative amount of the substance quantified in the receiving liquid per unit of surface area of the applied sample [31].
(§4) The experimental Qn and % compound release data were used to construct graphs showing permeation over time. […] The model was determined with the nonlinear regression software STATGRAPHICS plus 5 (Statgraphics Technologies, Inc., The Plains, VA, USA), and the best equation was selected based on the highest correlation coefficient corrected for the number of degrees of freedom (R^2 DoFs).
Parameters were obtained from the graph. Fluxes (J, μg/cm^2/h) from the tested compounds were calculated from the slope of the linear portion of the cumulative amounts permeated through the membrane per unit surface area versus time plot. The permeability coefficients (Kp, cm/h) were obtained by dividing the J by the initial drug/biocide concentration. And Cmax represented the maxima concentration permeated for each active substance.
As in the previous TMWL assay, dermatomed porcine sublingual mucosa and split skin at a thickness of 500–700 µm as well as the synthetic Nuclepore membrane were used in this study.

[3] = In vitro permeation through Nuclepore synthetic membrane (intact or modified by formulation), Franz diffusion cell; assay type: in vitro ADME; settings: for percent permeation: at 4 h
Description: as §2
The Nuclepore synthetic membrane, sublingual mucosa, and porcine skin dermatomed to a thickness of 500–700 µm were used to evaluate the permeation of drug/biocidal compounds. These studies were performed using a Franz vertical diffusion cell (Lara Spiral, Couternon, France) as described before. […]
as §1, §3, §4
Parameters were obtained from the graph. Fluxes (J, μg/cm^2/h) from the tested compounds were calculated from the slope of the linear portion of the cumulative amounts permeated through the membrane per unit surface area versus time plot. […]

[4] = cited from earlier work

## Cn1c(=O)c2c(ncn2C)n(C)c1=O [Caffeine]
[1]
  percent permeation: approximately 10%
[2]; MUCOSA F3: mucosa modified with formulation 3
  Permeability Coef. Kp: 8.3 ± 2.5 10^−3 cm/h
[2]; MUCOSA F6: mucosa modified with formulation 6
  Permeability Coef. Kp: 49.3 ± 0.1 10^−3 cm/h
[2]; MUCOSA F16: mucosa modified with formulation 16
  Permeability Coef. Kp: 6.4 ± 0.9 10^−3 cm/h
[2]; mucosa modified with formulation 6 (MUC F6), at 4 h
  percent permeation: 60%
[2]; mucosa modified with hydrophobic formulation 3 (MUC F3), at 4 h
  percent permeation: approximately 10%
[2]; mucosa modified with liposomal formulation 16 (printed MUC F6), at 4 h
  percent permeation: approximately 10%
[2]; sublingual mucosa (MUC), at 4 h
  percent permeation (release): 40%
[3]; Nuclepore membrane (NP), between 0.5 and 4 h
  maximum permeation: 50%
[3]; Nuclepore modified with formulation 6 (NP F6)
  percent permeation: 65%
[3]; Nuclepore modified with hydrophobic formulation 3 (NP F3)
  percent permeation: 40%
[3]; Nuclepore modified with liposomal formulation 16 (printed NP F6)
  percent permeation: 40%

## C[C@@H]1C[C@H]2[C@@H]3CCC4=CC(=O)C=C[C@]4(C)[C@@]3(F)[C@@H](O)C[C@]2(C)[C@@]1(O)C(=O)CO [Dexametasone, dexamethasone]
[4]
  Log Ko/w (pH 7.4): 1.8 [40]

## O=C(c1ccccc1)c1ccc2n1CCC2C(=O)O (centres unmarked) [Ketorolac tromethamine, ketorolac tromethamine]
[4]
  Log Ko/w (pH 7.4): 2.3 [39]

## CC1(C)C(C=C(Cl)Cl)C1C(=O)OCc1cccc(Oc2ccccc2)c1 (centres unmarked) [Permethrin, permethrin]
[4]
  Log Ko/w (pH 7.4): 6.5 [44]

## CCCC1COC(Cn2cncn2)(c2ccc(Cl)cc2Cl)O1 (centres unmarked) [Propiconazole, propiconazole]
[4]
  Log Ko/w (pH 7.4): 3.5 [43]

## Fungitrol
[4]
  Log Ko/w (pH 7.4): 2.4 [42]
